Like-named read-outs stand apart in the source and are kept apart here.
How the values were obtained:
human μ-opiate receptor = target: T1, human μ-opiate receptor (Homo sapiens, UniProt P35372); assay: Affinity for the human μ-opiate receptor, [3H]-naloxone displacement (SPA) on CHO-K1 receptor membrane preparation; type: binding; conditions: for μ-Opioid receptor affinity (% inhibition at 1 μmol./l): 1 μmol./l test substance, inhibition of specific [3H]-naloxone binding
T1 construct: purchased Perkin Elmer, Zaventem, Belgium RB-HOM; host or cells: CHO-K1 cells
T1 sequence (P35372 whole entry): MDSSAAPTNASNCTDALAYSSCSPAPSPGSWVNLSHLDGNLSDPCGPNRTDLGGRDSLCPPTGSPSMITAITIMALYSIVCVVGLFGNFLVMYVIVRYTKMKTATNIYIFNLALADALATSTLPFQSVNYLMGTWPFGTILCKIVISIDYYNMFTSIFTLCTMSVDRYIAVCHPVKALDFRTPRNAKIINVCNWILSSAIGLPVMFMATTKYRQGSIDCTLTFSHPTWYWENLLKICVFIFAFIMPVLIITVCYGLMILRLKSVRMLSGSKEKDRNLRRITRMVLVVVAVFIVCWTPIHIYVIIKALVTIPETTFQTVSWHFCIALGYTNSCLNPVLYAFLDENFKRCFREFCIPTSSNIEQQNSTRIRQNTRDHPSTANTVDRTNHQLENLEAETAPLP
Experimental: The receptor affinity for the human μ-opiate receptor was determined in a homogeneous batch on microtitre plates. To that end, serial dilutions of the substances to be tested were incubated for 90 minutes at room temperature with a receptor membrane preparation (15-40 μg of protein/250 μl of incubation batch) of CHO-K1 cells, which express the human μ-opiate receptor (RB-HOM receptor membrane preparation from Perkin Elmer, Zaventem, Belgium), in the presence of 1 nmol./l of the radioactive ligand [^3H]-naloxone (NET719, Perkin Elmer, Zaventem, Belgium) and 1 mg of WGA-SPA beads (wheatgerm agglutinin SPA beads from Amersham/Pharmacia, Freiburg, Germany) in a total volume of 250 μl. The incubation buffer used was 50 mmol./l of Tris-HCl supplemented with 50 μM MgCl2 and 0.05% bovine serum albumin. In order to determine non-specific binding, 100 μmol./l of naloxone were additionally added. When the ninety-minute incubation time was complete, the microtitre plates were centrifuged off for 20 minutes at 1000 g and the radioactivity was measured in a β-counter (Microbeta-Trilux, PerkinElmer, Freiburg, Germany). The percentage displacement of the radioactive ligand from its binding to the human μ-opiate receptor at a concentration of the test substances of 1 μmol./l was determined and stated as the percentage inhibition of specific binding. […] Ki values for the test substances were obtained by conversion by means of the Cheng-Prusoff equation (Cheng and Prusoff 1973).

mouse = assay: Formalin test in the mouse (phase 2, chronic pain component); type: in vivo; conditions: for ED50: iv, read-out: Inhibition of the nociceptive behaviour versus control, ED50 value
Experimental: (§1) The formalin test (Dubuisson, D. and Dennis, S. G., 1977, Pain, 4, 161-174) represents a model for acute and chronic pain. By means of a single formalin injection into the dorsal side of a rear paw, a biphase nociceptive reaction was induced in freely mobile test animals; the reaction was assessed by observing three behaviour patterns which are clearly distinguishable from one another. The reaction is two-phase: phase 1=immediate reaction (duration up to 10 minutes; shaking of the paw, licking), phase 2=late reaction (after a rest phase; likewise shaking of the paw, licking; duration up to 60 minutes). The first phase reflects a direct stimulation of the peripheral nocisensors with a high spinal nociceptive input or glutamate release (acute pain phase); the second phase reflects a spinal and peripheral hypersensitisation (chronic pain phase). In the studies presented here, the chronic pain component (phase 2) was evaluated.
Formalin was administered subcutaneously in a volume of 20 μl and a concentration of 1% into the dorsal side of the right rear paw of each animal. The specific behavioural changes, such as lifting and shaking of the paw (score 3), were observed and recorded over an observation period of from 21 to 24 minutes after the formalin injection. The size of the group was 10 animals (n=10).
(§2) On the basis of the PR calculations, the activity of the substance was determined in percent as the change relative to a control. The ED50 was determined by means of regression analysis.

5-HT reuptake = 5-HT reuptake (Rattus norvegicus, UniProt P31652); assay: biochemical; conditions: rat synaptosomes; for Ki: Cheng-Prusoff; for inhibition at 10 µM: read-out: Inhibition of 5-HT reuptake (% inhibition at 10 μmol./l), 10 μmol./l
Sequence of 5-HT reuptake (P31652 whole entry): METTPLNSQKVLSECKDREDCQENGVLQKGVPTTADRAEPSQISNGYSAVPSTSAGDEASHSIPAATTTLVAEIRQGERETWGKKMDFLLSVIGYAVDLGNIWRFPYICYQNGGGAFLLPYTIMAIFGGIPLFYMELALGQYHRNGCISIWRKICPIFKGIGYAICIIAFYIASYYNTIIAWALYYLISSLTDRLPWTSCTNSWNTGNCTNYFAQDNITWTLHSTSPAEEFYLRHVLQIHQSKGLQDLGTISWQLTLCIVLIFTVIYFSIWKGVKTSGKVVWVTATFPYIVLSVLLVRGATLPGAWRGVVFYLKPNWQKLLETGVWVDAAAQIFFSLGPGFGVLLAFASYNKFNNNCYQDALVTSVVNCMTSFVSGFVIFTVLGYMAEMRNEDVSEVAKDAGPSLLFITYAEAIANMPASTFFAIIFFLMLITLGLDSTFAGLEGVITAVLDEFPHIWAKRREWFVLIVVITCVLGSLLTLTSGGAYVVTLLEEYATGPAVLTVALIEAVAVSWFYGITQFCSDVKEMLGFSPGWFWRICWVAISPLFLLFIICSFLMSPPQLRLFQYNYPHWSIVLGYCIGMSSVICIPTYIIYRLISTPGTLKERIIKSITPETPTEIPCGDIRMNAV
From the text: In order to be able to carry out these in vitro studies, synaptosomes were freshly isolated from areas of rat brain. […] For NA reuptake, these vesicular particles were isolated from the hypothalamus of male rat brains, and for 5HT reuptake, they were isolated from the medulla+pons region.
The IC50 values were obtained with the aid of the “Figure P” computer program (Version 6.0, Biosoft, Cambridge, England). […] The “Ligand” computer program (Version 4, Biosoft, England) was used to show KD values.

NA reuptake = target: T2, NA reuptake (Rattus norvegicus, UniProt Q63380); assay: Inhibition of NA reuptake in rat brain synaptosomes (hypothalamus, P2 fraction); type: biochemical; conditions: for inhibition at 10 µM: 10 μmol./l
T2 construct: isolated from the hypothalamus of male rat brains; from tissue; host or cells: rat brain synaptosomes (P2 fraction), hypothalamus of male rats
T2 sequence (Q63380 1-617): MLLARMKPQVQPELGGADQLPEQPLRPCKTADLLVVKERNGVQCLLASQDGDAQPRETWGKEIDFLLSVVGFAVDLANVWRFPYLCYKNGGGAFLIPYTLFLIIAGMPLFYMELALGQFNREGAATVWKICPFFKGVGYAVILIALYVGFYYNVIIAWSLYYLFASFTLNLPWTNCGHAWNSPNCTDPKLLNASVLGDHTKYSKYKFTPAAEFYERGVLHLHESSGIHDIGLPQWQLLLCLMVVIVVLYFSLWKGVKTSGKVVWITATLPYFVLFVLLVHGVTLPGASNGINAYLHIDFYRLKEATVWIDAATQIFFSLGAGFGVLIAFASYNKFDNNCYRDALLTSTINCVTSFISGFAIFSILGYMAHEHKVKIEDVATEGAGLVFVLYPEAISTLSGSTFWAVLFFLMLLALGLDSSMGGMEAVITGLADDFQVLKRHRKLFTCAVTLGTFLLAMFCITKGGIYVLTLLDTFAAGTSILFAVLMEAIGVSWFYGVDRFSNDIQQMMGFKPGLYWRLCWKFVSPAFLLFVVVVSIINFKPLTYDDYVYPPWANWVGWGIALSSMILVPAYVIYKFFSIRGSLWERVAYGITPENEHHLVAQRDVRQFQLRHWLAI
Experimental: In order to be able to carry out these in vitro studies, synaptosomes were freshly isolated from areas of rat brain. A so-called “P2” fraction was used in each case, which was prepared exactly according to the procedure of Gray, E. G. and Whittaker, V. P. (1962, J. Anat. […], 79-88). For NA reuptake, these vesicular particles were isolated from the hypothalamus of male rat brains, and for 5HT reuptake, they were isolated from the medulla+pons region.
IC50 values were obtained thereby which can be converted into inhibitor constants (Ki) according to the “Cheng-Prusoff equation” (Cheng, Y. C. and Prusoff, W. H., 1973, Biochem. Pharmacol. 22, 3099-3108). The IC50 values were obtained with the aid of the “Figure P” computer program (Version 6.0, Biosoft, Cambridge, England). Km values were calculated according to Lineweaver, H. and Burk, D. (1934, J. Am. Chem. Soc. 56, 658-666). The “Ligand” computer program (Version 4, Biosoft, England) was used to show KD values.

rat = assay: Formalin test in the rat (phase 2, chronic pain component); type: in vivo
Experimental: as §1
Formalin was administered subcutaneously in a volume of 50 μl and a concentration of 5% into the dorsal side of the right rear paw of each animal. The specific behavioural changes, such as lifting and shaking of the paw, weight shifting of the animal and biting and licking reactions, were observed and recorded over an observation period of from 21 to 27 minutes after the formalin injection. The various behaviours were combined to give the so-called pain rate (PR) which, based on 3-minute intervals, represents the calculation of a mean nociceptive reaction. The PR was calculated on the basis of a numerical weighting (=in each case factor 1, 2, 3) of the observed behaviours (corresponding to behaviour score 1, 2, 3) and was calculated using the following formula:
The size of the group was 10 animals (n=10).
as §2

[1] = Cheng-Prusoff from IC50, [3H]-naloxone 1 nmol./l, read-out: μ-Opioid receptor affinity, Ki
[2] = 21.5 mg/kg i.v., phase 2, 21.5 mg/kg

| SMILES | Ki (5-HT reuptake) | inhibition at 10 µM (NA reuptake) | Ki (human μ-opiate receptor; [1]) | inhibition at 10 µM (5-HT reuptake) | μ-Opioid receptor affinity (% inhibition at 1 μmol./l) (human μ-opiate receptor) | further results |
| --- | --- | --- | --- | --- | --- | --- |
| CN(C)CC1=C(c2cccnc2)c2ccccc2C1 [Example 3, dimethyl-(3-pyridin-3-yl-1H-inden-2-ylmethyl)-amine] | 13 nM | 30% | – | – | – | Ki (human μ-opiate receptor): 240 nM; ED50 (mouse; phase 2, regression analysis): 3.32 mg/kg |
| COc1ccc2c(c1)CC(CN(C)C)=C2c1cccnc1 [Example 6, (6-methoxy-3-pyridin-3-yl-1H-inden-2-ylmethyl)-dimethyl-amine] | 28 nM | 31% | – | – | – | Ki (human μ-opiate receptor): 150 nM; ED50 (mouse; phase 2, regression analysis): 1.64 mg/kg |
| CN(C)CC1=C(c2cccnc2)c2ccccc2CC1 [Example 9, dimethyl-(1-pyridin-3-yl-3,4-dihydro-naphthalen-2-ylmethyl)-amine] | – | 26% | 560 nM | 56% | – | Inhibition of the nociceptive behaviour versus control (% inhibition) (rat; 10 mg/kg i.v., phase 2): −97.0% |
| CN(C)CC1=C(c2cccnc2)c2ccccc2CCC1 [Example 12, dimethyl-(5-pyridin-3-yl-8,9-dihydro-7H-benzocyclohepten-6-ylmethyl)-amine] | 120 nM | 20% | 380 nM | – | – | Inhibition of the nociceptive behaviour versus control (% inhibition) (mouse; 14.7 mg/kg i.v., phase 2): −45.8% |
| CN(C)CC1CCSc2ccccc2C1(O)c1cccnc1 (stereo not drawn) [Example 13, 4-dimethylaminomethyl-5-pyridin-3-yl-2,3,4,5-tetrahydro-benzo[b]thiepin-5-ol] | – | 45% | – | 41% | −23% | Inhibition of the nociceptive behaviour versus control (% inhibition) (rat; [2]): −53.6% |
| CN(C)CC1CCSc2ccccc2C1(O)c1cccnc1 (stereo not drawn) [Example 14, 4-dimethylaminomethyl-5-pyridin-3-yl-2,3,4,5-tetrahydro-benzo[b]thiepin-5-ol] | – | – | – | – | −14% | Inhibition of the nociceptive behaviour versus control (% inhibition) (rat; [2]): −53.2%; Inhibition of 5-HT reuptake (% inhibition at 10 μmol./l) (5-HT reuptake; 10 μmol./l): 44%; Inhibition of NA reuptake (% inhibition at 10 μmol./l) (NA reuptake): 54% |
| CN(C)CC1=C(c2cccnc2)c2ccccc2SCC1 [Example 15, dimethyl-(5-pyridin-3-yl-2,3-dihydro-benzo[b]thiepin-4-ylmethyl)-amine] | – | 36% | 320 nM | 60% | – | Inhibition of the nociceptive behaviour versus control (% inhibition) (rat; 10 mg/kg i.v., phase 2): −70.7% |
| COc1ccc(C(CN(C)C)C2(O)CCCCC2)cc1 (stereo not drawn) [Venlafaxin, venlafaxin, reference compound] | – | – | – | – | −1% | Inhibition of the nociceptive behaviour versus control, ED50 value (mouse; i.v., phase 2, regression analysis): 2.60 mg/kg |

From patent US8278338B2 (priority 2004, dated 2012)
